# Reference: patent US20150374673A1, “Combination Therapy for the Treatment of Nosocomial Pneumonia” (priority 2013, published 2015)
# Read-outs that look alike come from different tables or passages of the source.
# Key:
# P. aeruginosa = test: MIC, CLSI broth microdilution in CAMHB with 0-10% pulmonary surfactant (avibactam fixed at 4 μg/mL in combination); assay type: cell-based, Pseudomonas aeruginosa
# Method: The bacterial strains used in this testing were part of the microbiological culture collection housed at AstraZeneca R&D Boston (AstraZeneca Research Collection, designated ARC). The panel of bacterial isolates used for this testing was comprised of five CLSI QC reference strains and the remainder were either recent clinical isolates expressing β-lactamases or isolates from the primary bacterial screening panels.
# MIC values were determined using the CLSI broth microdilution methodology with slight variation. Stock compound mother plates were prepared and used to spot 2 μL aliquots of serial 2-fold drug dilutions to columns 1-11 of 96-well daughter plates using a Perkin-Elmer MiniTrak™ MultiPosition dispenser. […] An inoculum volume of 100 μL (5×10E^5 CFU/mL) in CAMHB containing 0, 1, 2.5, 5, or 10% pulmonary surfactant was added using a multichannel Finnpipette® to each well of the 96-well plate.
# The minimum inhibitory concentration (MIC) values against each organism/drug combination were determined using broth microdilution methodology according to CLSI guidelines. The recommended reference bacterial strains for each test group and reference compounds were incorporated into each test. For Gram-negatives, the reference bacterial strains were Escherichia coli ATCC 25922, E. coli ATCC 35218, Klebsiella pneumoniae ATCC 700603, and Pseudomonas aeruginosa ATCC 27853. Staphylococcus aureus ATCC 29213 was the reference bacterial strain for the Gram-positives.
# MIC values for individual isolates were read visually. The MICs for each compound or combination in pulmonary surfactant was compared to the compound or combination tested in CAMHB alone.
# E. cloacae = test: Initial MIC, microbroth dilution (CLSI), avibactam 4 mg/L; assay type: cell-based; details: Enterobacter cloacae
# Text: (§1) All MIC determinations including those performed in the checkerboard assay were done in cation-adjusted Mueller-Hinton broth (purchased from Becton Dickinson, Oxford UK). […]
# E. coli = test: as above; assay type: cell-based; details: Escherichia coli, read-out: MIC
# Text: as §1
# E. faecalis = test: as above; assay type: cell-based
# Text: as §1
# S. aureus = test: as above; assay type: cell-based; details: Staphylococcus aureus, read-out: MIC
# Text: as §1
# [1] = test system: all isolates (Enterobacteriaceae, P. aeruginosa, S. aureus, E. faecalis); test: Checkerboard assay, mean FICI over all isolates; assay type: cell-based
# Method: All MIC determinations including those performed in the checkerboard assay were done in cation-adjusted Mueller-Hinton broth (purchased from Becton Dickinson, Oxford UK).
# Initial MIC data were determined by microbroth dilution methods as recommended by CLSI (2012b). Checkerboards were made in accordance with the method given by Pillai et. al., ? Antimicrobial Combinations in Antibiotics, LABORATORY MEDICINE (Lorian Ed., 3rd Ed. (2003)) p. 365-440 as per standard microbroth dilution tests but with agents in combination. […] A final avibactam concentration of 4 mg/L was used throughout the study. Antibacterial agents were combined into microtitre plates using the Evolution III liquid handling system.
# Checkerboard plates were inoculated and incubated in accordance with CLSI guidelines (2012b) at 35±2° C. in ambient air for 16-20 h. MICs were recorded the following day as the lowest concentration or combination of concentrations required to inhibit all visible growth. From the MIC data, FICIs were calculated for each checkerboard according to the method of Meletiadis et. al., Defining Fractional Inhibitory Concentration Index Cutoffs for Additive Interactions Based on Self-Drug Additive Combinations, Monte Carlo Simulation Analysis and in vitro-in vivo Correlation Data for Antifungal Drug Combinations Against Aspergillus fumigatus, AAC 54:602-09 (2010).
# FICI=FICA+FICB=(CA/MICA)+(CB/MICB)
# As each checkerboard gives a number of FICI values, an arithmetic mean is calculated from all values to give the mean FICI for two agents combined against one isolate. Mean FICIs were interpreted by the following criteria given by Odds (2003) which are now the accepted criteria by most journals: […]
# Gram-positive isolates = test: MIC alone compared with MIC in presence of Cmax and 0.5×Cmax of colistin, all Gram-positive isolates; assay type: cell-based; details: with Cmax and 0.5×Cmax of colistin
# Text: A mean FICI was taken from each combination checkerboard and interpreted according to accepted criteria. […] Four highly-expressed AmpC, eight extended-spectrum beta-lactamase (ESBL) including two CTX-M-15 and five KPC producing Enterobacteriaceae and P. aeruginosa were included as well as representatives from each species with basal MICs. Three S. aureus and three E. faecalis were also included.
# [2] = Pseudomonas aeruginosa, ATCC27853, P. aeruginosa ARC3 (CLSI QC strain, ATCC 27853), surfactant 0%, read-out: MIC
# [3] = Pseudomonas aeruginosa, P. aeruginosa ARC2761 (Clinical isolate), surfactant 0%, read-out: MIC
# [4] = with Col, Gram-negative isolates
# [5] = with Lzd, Gram-positive isolates
# [6] = with Van, Gram-positive isolates
compound,measurement,setting,value
"NC(=O)[C@@H]1CC[C@@H]2CN1C(=O)N2OS(=O)(=O)[O-].[Na+] [avibactam, [(2S,5R)-2-carbamoyl-7-oxo-1,6-diazabicyclo[3.2.1]octan-6-yl]hydrogen sulfate]",MIC,"P. aeruginosa; P. aeruginosa ARC3 (CLSI QC strain, ATCC 27853), surfactant 1%",>64 µg/mL
same,MIC,"P. aeruginosa; P. aeruginosa ARC3 (CLSI QC strain, ATCC 27853), surfactant 2.5%",>64 µg/mL
same,MIC,"P. aeruginosa; P. aeruginosa ARC3 (CLSI QC strain, ATCC 27853), surfactant 5%",>64 µg/mL
same,MIC,"P. aeruginosa; P. aeruginosa ARC3 (CLSI QC strain, ATCC 27853), surfactant 10%",>64 µg/mL
same,MIC,"P. aeruginosa; P. aeruginosa ARC545 (PAO1), surfactant 1%",>64 µg/mL
same,MIC,"P. aeruginosa; P. aeruginosa ARC545 (PAO1), surfactant 2.5%",>64 µg/mL
same,MIC,"P. aeruginosa; P. aeruginosa ARC545 (PAO1), surfactant 5%",>64 µg/mL
same,MIC,"P. aeruginosa; P. aeruginosa ARC545 (PAO1), surfactant 10%",>64 µg/mL
same,MIC,"P. aeruginosa; P. aeruginosa ARC2532 (Clinical isolate), surfactant 0%",>64 µg/mL
same,MIC,"P. aeruginosa; P. aeruginosa ARC2532 (Clinical isolate), surfactant 1%",>64 µg/mL
same,MIC,"P. aeruginosa; P. aeruginosa ARC2532 (Clinical isolate), surfactant 2.5%",>64 µg/mL
same,MIC,"P. aeruginosa; P. aeruginosa ARC2532 (Clinical isolate), surfactant 5%",>64 µg/mL
same,MIC,"P. aeruginosa; P. aeruginosa ARC2532 (Clinical isolate), surfactant 10%",>64 µg/mL
same,MIC,"P. aeruginosa; P. aeruginosa ARC2761 (Clinical isolate), surfactant 1%",>64 µg/mL
same,MIC,"P. aeruginosa; P. aeruginosa ARC2761 (Clinical isolate), surfactant 2.5%",>64 µg/mL
same,MIC,"P. aeruginosa; P. aeruginosa ARC2761 (Clinical isolate), surfactant 5%",>64 µg/mL
same,MIC,"P. aeruginosa; P. aeruginosa ARC2761 (Clinical isolate), surfactant 10%",>64 µg/mL
same,MIC,"P. aeruginosa; P. aeruginosa ARC3508 (derepressed AmpC), surfactant 0%",>64 µg/mL
same,MIC,"P. aeruginosa; P. aeruginosa ARC3508 (derepressed AmpC), surfactant 1%",>64 µg/mL
same,MIC,"P. aeruginosa; P. aeruginosa ARC3508 (derepressed AmpC), surfactant 2.5%",>64 µg/mL
same,MIC,"P. aeruginosa; P. aeruginosa ARC3508 (derepressed AmpC), surfactant 5%",>64 µg/mL
same,MIC,"P. aeruginosa; P. aeruginosa ARC3508 (derepressed AmpC), surfactant 10%",>64 µg/mL
same,MIC,P. aeruginosa; [2],> 64 µg/mL
same,MIC,"P. aeruginosa; Pseudomonas aeruginosa, P. aeruginosa ARC545 (PAO1), surfactant 0%, read-out: MIC",> 64 µg/mL
same,MIC,P. aeruginosa; [3],> 64 µg/mL
"CC(C)(O/N=C(\C(=O)N[C@@H]1C(=O)N2C(C(=O)[O-])=C(C[n+]3ccccc3)CS[C@H]12)c1csc(N)n1)C(=O)O [ceftazidime, (6R,7R)-7-[[(2Z)-2-(2-amino-1,3-thiazol-4-yl)-2-(1-hydroxy-2-methyl-1-oxopropan-2-yl)oxyiminoacetyl]amino]-8-oxo-3-(pyridin-1-ium-1-ylmethyl)-5-thia-1-azabicyclo[4.2.0]oct-2-ene-2-carboxylate pentahydrate]",MIC,"P. aeruginosa; Pseudomonas aeruginosa, ATCC27853, P. aeruginosa ARC3 (CLSI QC strain, ATCC 27853), surfactant 1%, read-out: MIC",1 µg/mL
same,MIC,"P. aeruginosa; Pseudomonas aeruginosa, ATCC27853, P. aeruginosa ARC3 (CLSI QC strain, ATCC 27853), surfactant 2.5%, read-out: MIC",2 µg/mL
same,MIC,"P. aeruginosa; Pseudomonas aeruginosa, ATCC27853, P. aeruginosa ARC3 (CLSI QC strain, ATCC 27853), surfactant 5%, read-out: MIC",1 µg/mL
same,MIC,"P. aeruginosa; Pseudomonas aeruginosa, ATCC27853, P. aeruginosa ARC3 (CLSI QC strain, ATCC 27853), surfactant 10%, read-out: MIC",2 µg/mL
same,MIC,P. aeruginosa; [2],1 µg/mL
same,MIC,"P. aeruginosa; Pseudomonas aeruginosa, P. aeruginosa ARC2532 (Clinical isolate), surfactant 0%, read-out: MIC",2 µg/mL
same,MIC,"P. aeruginosa; Pseudomonas aeruginosa, P. aeruginosa ARC2532 (Clinical isolate), surfactant 1%, read-out: MIC",2 µg/mL
same,MIC,"P. aeruginosa; Pseudomonas aeruginosa, P. aeruginosa ARC2532 (Clinical isolate), surfactant 2.5%, read-out: MIC",2 µg/mL
same,MIC,"P. aeruginosa; Pseudomonas aeruginosa, P. aeruginosa ARC2532 (Clinical isolate), surfactant 5%, read-out: MIC",2 µg/mL
same,MIC,"P. aeruginosa; Pseudomonas aeruginosa, P. aeruginosa ARC2532 (Clinical isolate), surfactant 10%, read-out: MIC",2 µg/mL
same,MIC,"P. aeruginosa; Pseudomonas aeruginosa, P. aeruginosa ARC2761 (Clinical isolate), surfactant 1%, read-out: MIC",2 µg/mL
same,MIC,"P. aeruginosa; Pseudomonas aeruginosa, P. aeruginosa ARC2761 (Clinical isolate), surfactant 2.5%, read-out: MIC",1 µg/mL
same,MIC,"P. aeruginosa; Pseudomonas aeruginosa, P. aeruginosa ARC2761 (Clinical isolate), surfactant 5%, read-out: MIC",2 µg/mL
same,MIC,"P. aeruginosa; Pseudomonas aeruginosa, P. aeruginosa ARC2761 (Clinical isolate), surfactant 10%, read-out: MIC",2 µg/mL
same,MIC,"P. aeruginosa; Pseudomonas aeruginosa, P. aeruginosa ARC3508 (derepressed AmpC), surfactant 0%, read-out: MIC",32 µg/mL
same,MIC,"P. aeruginosa; Pseudomonas aeruginosa, P. aeruginosa ARC3508 (derepressed AmpC), surfactant 1%, read-out: MIC",32 µg/mL
same,MIC,"P. aeruginosa; Pseudomonas aeruginosa, P. aeruginosa ARC3508 (derepressed AmpC), surfactant 2.5%, read-out: MIC",32 µg/mL
same,MIC,"P. aeruginosa; Pseudomonas aeruginosa, P. aeruginosa ARC3508 (derepressed AmpC), surfactant 5%, read-out: MIC",32 µg/mL
same,MIC,"P. aeruginosa; Pseudomonas aeruginosa, P. aeruginosa ARC3508 (derepressed AmpC), surfactant 10%, read-out: MIC",32 µg/mL
same,MIC,"P. aeruginosa; Pseudomonas aeruginosa, PAO1, P. aeruginosa ARC545 (PAO1), surfactant 0%, read-out: MIC",1 µg/mL
same,MIC,"P. aeruginosa; Pseudomonas aeruginosa, PAO1, P. aeruginosa ARC545 (PAO1), surfactant 1%, read-out: MIC",1 µg/mL
same,MIC,"P. aeruginosa; Pseudomonas aeruginosa, PAO1, P. aeruginosa ARC545 (PAO1), surfactant 2.5%, read-out: MIC",1 µg/mL
same,MIC,"P. aeruginosa; Pseudomonas aeruginosa, PAO1, P. aeruginosa ARC545 (PAO1), surfactant 5%, read-out: MIC",1 µg/mL
same,MIC,"P. aeruginosa; Pseudomonas aeruginosa, PAO1, P. aeruginosa ARC545 (PAO1), surfactant 10%, read-out: MIC",1 µg/mL
same,MIC,P. aeruginosa; [3],2 µg/mL
same,MIC,"E. cloacae; isolate 1 E. cloacae Basal MICs, read-out: MIC",0.12 µg/mL
same,MIC,E. cloacae; isolate 2 E. cloacae Derepressed AmpC,256 µg/mL
same,MIC,E. cloacae; isolate 3 E. cloacae Derepressed AmpC,128 µg/mL
same,MIC,E. coli; isolate 5 E. coli CTX-M-15,64 µg/mL
same,MIC,E. coli; isolate 6 E. coli TEM-4,8 µg/mL
same,MIC,E. coli; isolate 7 E. coli SHV-12,16 µg/mL
same,MIC,E. coli; isolate 8 E. coli SHV-2,1 µg/mL
same,MIC,E. faecalis; Enterococcus faecalis,256 µg/mL
same,MIC,"E. faecalis; Enterococcus faecalis, isolate 25 E. faecalis Basal MICs, read-out: MIC",> 512 µg/mL
same,MIC,E. faecalis; isolate 27 E. faecalis Basal MICs,256 µg/mL
same,MIC,S. aureus; isolate 22 S. aureus Basal MICs,8 µg/mL
same,MIC,"S. aureus; isolate 23 S. aureus Basal MICs, Penicillinase+",16 µg/mL
same,MIC,"S. aureus; isolate 24 S. aureus Basal MICs, Penicillinase+",8 µg/mL
same,"interaction, synergistic or antagonistic, with any other antibacterial agent","[1]; tobramycin, levofloxacin, vancomycin, linezolid, tigecycline, colistin",No interaction
same,Mean FICI range high,[1]; [4],1.66
same,Mean FICI range low,[1]; [4],0.85
same,Mean FICI range high,"[1]; with Lev, all isolates",1.33
same,Mean FICI range low,"[1]; with Lev, all isolates",0.78
same,Mean FICI range high,[1]; [5],1.64
same,Mean FICI range low,[1]; [5],0.99
same,Mean FICI range high,"[1]; with Tig, all isolates",1.99
same,Mean FICI range low,"[1]; with Tig, all isolates",0.73
same,Mean FICI range high,"[1]; with Tob, all isolates",1.60
same,Mean FICI range low,"[1]; with Tob, all isolates",0.64
same,Mean FICI range high,[1]; [6],1.63
same,Mean FICI range low,[1]; [6],0.99
same,MIC alone and in combination,Gram-positive isolates,remained within one doubling dilution in all cases
